Common to all, as to format: in vivo
In test [1] the test system is corn seeds. Nature of the test: Corn seed germination (seed vigor) after seed soaking. The note with it: for Average germination index / average germination potential / Average germination rate: corn seeds soaked 24 hours in 0.3 mM aqueous solution; for average germination potential: first 5 days; for Average germination rate: within 7 days. The protocol:
(§1) In the following examples, the relative activity index is calculated by the following formula: • (1) average germination rate: ×100% (total number of germinated seeds/total number of tested seeds within 7 days); • (2) average germination potential: ×100% (total number of germinated seeds/total number of tested seeds in the first 5 days); • (3) average germination index: Σ(number of sprouts per day/[…]); • (4) statistical P-value: generally, X represents the statistical quantity of the test, and when H0 is true, the value C of the statistical quantity can be calculated from the sample data, and the P value can be obtained from the specific distribution of the test statistical quantity X. Specifically, the P value of the left test is the probability that the test statistic X is smaller than the sample statistic C, i.e.: P=P {X<C} the P value for the right-side test is the probability that the test statistic X is greater than the sample statistic C: P=P {X>C} the P value of the two-sided test is 2 times the probability that the test statistic X falls within the tail region where the sample statistic C is an endpoint: P=2P {X>C} (when C is located at the right end of the distribution curve) or P=2P {X<C} (when C is located at the left end of the distribution curve) if X obeys a normal distribution and a t-distribution, the distribution curve is symmetric about the vertical axis, so its P value can be represented as P=P {|X|>C}; • after the P-value has been calculated, a test can be concluded by comparing a given significance level a to the P-value: rejecting the original hypothesis if a>P value; if a≤P value, the original assumption is accepted at significance level a. […]

Test [2] relates to rice seeds. Nature of the test: Rice seed germination (seed vigor) after seed soaking. As to the method:
as §1

Test [3] deals with wheat seeds. Nature of the test: Wheat seed germination (seed vigor) after seed soaking. The note with it: for Average germination index / average germination potential / Average germination rate: wheat seeds soaked 24 hours in 0.3 mM aqueous solution; for average germination potential: first 5 days; for Average germination rate: within 7 days. The protocol:
as §1

Test [4] relates to tobacco seeds. Description: Tobacco seed germination (seed vigor) after seed soaking. The note with it: for Average germination index / average germination potential / Average germination rate: tobacco seeds soaked 24 hours in 0.3 mM aqueous solution; for average germination potential: first 5 days; for Average germination rate: within 7 days. The protocol: as §1
The subject of test [5] is tomato seeds. Description: Tomato seed germination (seed vigor) after seed soaking. The note with it: for Average germination index / average germination potential / Average germination rate: tomato seeds soaked 24 hours in 0.3 mM aqueous solution; for average germination potential: first 5 days; for Average germination rate: within 7 days. The protocol:
as §1

Setting [6] is: rice seeds soaked 24 hours in 0.3 mM aqueous solution.
[7] abbreviates: rice seeds soaked 24 hours in 0.3 mM aqueous solution, germinated in the first 5 days.
[8] abbreviates: rice seeds soaked 24 hours in 0.3 mM aqueous solution, germinated within 7 days, 3 parallel groups.

The values below come from patent publication US20250241313A1, “APPLICATION OF ACTIVE SUBSTANCE IN IMPROVING SEED VIGOR AND METHOD FOR IMPROVING SEED VIGOR” (HUNAN HYBRID RICE RESEARCH CENTER, priority 2024, published 2025).

With `C=C(OP(=O)(O)O)C(=O)O` [PEP, phosphoenolpyruvate], the Average germination index is listed as 14.2 ^ in test [1]; 11.04 in test [2] (setting [6]); 8.43 in test [2] (rice seeds, 0.09 mM aqueous solution); 11.04 in test [2] (rice seeds, 0.2 mM aqueous solution); 6.367 in test [3]; 12.78 in test [4]. In addition, the Average germination index in test [5] was 9.783. For the same compound, the average germination potential in test [1] came to 70%; in test [2] (setting [7]) it was 66%; in test [2] (rice seeds, 0.09 mM aqueous solution, first 5 days) it was 61%; in test [2] (rice seeds, 0.2 mM aqueous solution, first 5 days), 66%; in test [3], 24%; in test [4] it was 64%. This compound also registered an average germination potential in test [5] of 59%. Also, the Average germination rate in test [1] turned out to be 68%; in test [2] (setting [8]) it was 72%; in test [2] (rice seeds, 0.09 mM aqueous solution, within 7 days), 63%; in test [2] (rice seeds, 0.2 mM aqueous solution, within 7 days), 72%; in test [3] it was 24%; in test [4], 70%. Moreover, the Average germination rate in test [5] came out at 60%. The “germination condition and root growth versus water control (FIG. 6-7)” value in test [1] (corn seeds, 0.3 mM, day 7) is given as “the root growth of the corn seeds can be accelerated”. The “germination condition and root system / leaf growth versus water control (FIG. 1-3)” value in test [2] (rice seeds, 0.3 mM, day 4 and day 7) is “significantly accelerate the growth of the root system and leaf of rice seeds”. The “germination condition and root growth versus water control (FIG. 4-5)” value in test [3] (wheat seeds, 0.3 mM, day 7) was “the root growth of the wheat seeds can be accelerated”. Moreover, in test [4] (tobacco seeds, 0.3 mM, day 7), the “germination condition and root system growth versus water control (FIG. 9)” value is given as “the root system growth of the tobacco seeds can be accelerated”. The “germination condition and root system growth versus water control (FIG. 8)” value in test [5] (tomato seeds, 0.3 mM, day 7) was “the root system growth of the tomato seeds can be accelerated”.
`C=C(OP(=O)([O-])O)C(=O)O.[K+]` [PEP-K salt, potassium phosphoenolpyruvate]: the Average germination index in test [1] is recorded as 14.5 ^; in test [2] (setting [6]) it was 10.76; in test [2] (rice seeds, 0.5 mM aqueous solution), 10.76; in test [3], 6.333; in test [4], 11.83; in test [5], 10.73. Besides, the average germination potential is 70% in test [1]; 64% in test [2] (setting [7]); 64% in test [2] (rice seeds, 0.5 mM aqueous solution, first 5 days); 21% in test [3]; 64% in test [4]; 64% in test [5]. Also, the Average germination rate in test [1] is 68%; in test [2] (setting [8]) it was 68%; in test [2] (rice seeds, 0.5 mM aqueous solution, within 7 days) it was 68%; in test [3], 22%; in test [4], 66%; in test [5], 65%.
Consider `C=C(OP(=O)(O)O)C(=O)O.NC1CCCCC1` [PEP-cyclohexylammonium salt, cyclohexylammonium phosphoenolpyruvate], for which the Average germination index is on record as 10.25 ^ in test [1]; 10.82 in test [2] (setting [6]); 9.82 in test [2] (rice seeds, 1.1 mM aqueous solution); 5.067 in test [3]; 10.53 in test [4]; 10.23 in test [5]. In addition, the average germination potential in test [1] is recorded as 60%; in test [2] (setting [7]), 66%; in test [2] (rice seeds, 1.1 mM aqueous solution, first 5 days), 64%; in test [3] it was 19%; in test [4] it was 65%; in test [5], 65%. Also, the Average germination rate in test [1] stood at 58%; in test [2] (setting [8]), 70%; in test [2] (rice seeds, 1.1 mM aqueous solution, within 7 days), 62%; in test [3], 21%; in test [4], 68%; in test [5] it was 66%.
